Where two headings read alike, the source gives them in different places.
Test system: Mycosphaerella graminicola; Anamorph: Septoria tritici; Bayer Code SEPTTR
Assay: Leaf blotch of wheat, foliar fungicide treatment, one day protectant (1DP) or three day curative (3DC)
Assay type: in vivo, Septoria tritici on wheat plants (variety Yuma)
Details: Zymoseptoria tritici, percent control rating; for pest or weed control at 100 ppm: read-out: SEPTTR 3DC 100 ppm
[1] = 24 h, one day protectant (1DP), 25 ppm (first 1DP column), read-out: SETTTR 1DP 25 ppm
[2] = 24 h, one day protectant (1DP), 25 ppm as printed (second 1DP column), read-out: SETTTR 1DP 25 ppm
[3] = 72 h, three day curative (3DC), 25 ppm, read-out: SEPTTR 3DC 25 ppm

| SMILES | pest or weed control at 25 ppm [1] [%] | pest or weed control at 25 ppm [2] [%] | pest or weed control at 25 ppm [3] [%] | pest or weed control at 100 ppm (72 h, three day curative (3DC)) [%] |
| --- | --- | --- | --- | --- |
| COc1ncc(F)c(N/N=C(\C)c2cc3ccccc3o2)n1 [Compound 1019] | 26 to 50 | 26 to 50 | 0 to 25 | 0 to 25 |
| COc1ncc(F)c(N/N=C/c2cc(C)nn2C)n1 [Compound 1020] | 0 to 25 | 0 to 25 | 26 to 50 | 0 to 25 |
| CCC(/C=N/Nc1nc(OC)ncc1F)CC [Compound 1021] | 0 to 25 | 26 to 50 | 26 to 50 | 26 to 50 |
| COc1ncc(F)c(N/N=C/C2CC2)n1 [Compound 1022] | 0 to 25 | 0 to 25 | 0 to 25 | 26 to 50 |
| COc1ncc(F)c(N/N=C/c2ccco2)n1 [Compound 1023] | 0 to 25 | 0 to 25 | 0 to 25 | 0 to 25 |
| COc1ncc(F)c(N/N=C/c2cccs2)n1 [Compound 1024] | 0 to 25 | 0 to 25 | 0 to 25 | 0 to 25 |
| COc1ncc(F)c(N/N=C(\C)c2sc(C)nc2C)n1 [Compound 1025] | 0 to 25 | 0 to 25 | 26 to 50 | 0 to 25 |
| COc1ncc(F)c(N/N=C(\C)c2ccc(F)cc2)n1 [Compound 1026] | 26 to 50 | 26 to 50 | 0 to 25 | 26 to 50 |
| Cc1ccc(COc2ncc(F)c(NS(=O)(=O)c3c(Br)cnn3C)n2)cc1 [Compound 1027] | 0 to 25 | 0 to 25 | 0 to 25 | 0 to 25 |
| Fc1ccccc1NNc1nc(OCc2ccccc2)ncc1F [Compound 1028] | 0 to 25 | 0 to 25 | 0 to 25 | 0 to 25 |
| Fc1cnc(OCc2ccccc2)nc1NNc1cccc(C(F)(F)F)c1 [Compound 1029] | 0 to 25 | 0 to 25 | 0 to 25 | 0 to 25 |
| Cc1ccc(COc2ncc(F)c(NNc3ccc(Br)cc3)n2)cc1 [Compound 1030] | 0 to 25 | 0 to 25 | 0 to 25 | 0 to 25 |
| COc1cccc(COc2ncc(F)c(NNc3cc(C)nc(C)n3)n2)c1 [Compound 1032] | 26 to 50 | 26 to 50 | 0 to 25 | 0 to 25 |
| C/C=C(C)/C=N/Nc1nc(OC)ncc1F [Compound 1033] | 0 to 25 | 0 to 25 | 0 to 25 | 26 to 50 |
| COc1ncc(F)c(NNc2ccccc2Cl)n1 [Compound 1034] | 0 to 25 | 0 to 25 | 0 to 25 | 0 to 25 |
| Fc1cnc(OCc2ccccc2)nc1NNc1ccc(Br)cc1 [Compound 1035] | 0 to 25 | 0 to 25 | 0 to 25 | 0 to 25 |
| Cc1ccc(C)c(NNc2nc(OCc3ccccc3)ncc2F)c1 [Compound 1036] | 0 to 25 | 0 to 25 | 0 to 25 | 0 to 25 |
| Fc1cnc(OCc2ccccc2)nc1NNc1ccc(Cl)c(Cl)c1 [Compound 1037] | 0 to 25 | 26 to 50 | 0 to 25 | 0 to 25 |

| SMILES | pest or weed control at 25 ppm [1] [%] | pest or weed control at 25 ppm [2] [%] | pest or weed control at 25 ppm [3] [%] | pest or weed control at 100 ppm (72 h, three day curative (3DC)) [%] |
| --- | --- | --- | --- | --- |
| Fc1cnc(OCc2ccccc2)nc1NNc1nccc(C(F)(F)F)n1 [Compound 1038] | 0 to 25 | 0 to 25 | 0 to 25 | 0 to 25 |
| Cc1ccc(COc2ncc(F)c(NNc3ccccc3F)n2)cc1 [Compound 1039] | 0 to 25 | 0 to 25 | 0 to 25 | 0 to 25 |
| Cc1ccc(COc2ncc(F)c(NNc3ccc(Cl)nn3)n2)cc1 [Compound 1040] | 0 to 25 | 0 to 25 | 0 to 25 | 0 to 25 |
| Cc1ccc(COc2ncc(F)c(NNc3nccc(C(F)(F)F)n3)n2)cc1 [Compound 1041] | 0 to 25 | 0 to 25 | 0 to 25 | 0 to 25 |
| Fc1ccc(COc2ncc(F)c(NNc3ccccc3F)n2)cc1 [Compound 1042] | 0 to 25 | 0 to 25 | 0 to 25 | 26 to 50 |
| Fc1ccc(COc2ncc(F)c(NNc3nccc(C(F)(F)F)n3)n2)cc1 [Compound 1043] | 0 to 25 | 0 to 25 | 0 to 25 | 0 to 25 |
| Fc1ccc(COc2ncc(F)c(NNc3nc4ccccc4s3)n2)cc1 [Compound 1044] | 0 to 25 | 0 to 25 | 0 to 25 | 0 to 25 |
| COc1cccc(COc2ncc(F)c(NNc3nccc(C(F)(F)F)n3)n2)c1 [Compound 1045] | 0 to 25 | 0 to 25 | 0 to 25 | 0 to 25 |
| COc1cccc(COc2ncc(F)c(NNc3nc4ccccc4s3)n2)c1 [Compound 1046] | 0 to 25 | 0 to 25 | 0 to 25 | 0 to 25 |
| Fc1ccc(COc2ncc(F)c(NNc3cccc(F)n3)n2)cc1 [Compound 1047] | 0 to 25 | 0 to 25 | 26 to 50 | 26 to 50 |
| COc1ncc(F)c(NNc2ccc(Cl)nn2)n1 [Compound 1048] | 0 to 25 | 0 to 25 | 0 to 25 | 0 to 25 |
| COc1ncc(F)c(NNc2nccc(C(F)(F)F)n2)n1 [Compound 1049] | 0 to 25 | 0 to 25 | 26 to 50 | 26 to 50 |
| COc1ncc(F)c(NNc2ccccn2)n1 [Compound 1050] | 0 to 25 | 0 to 25 | 0 to 25 | 26 to 50 |
| COc1ncc(F)c(NNc2ncnc3ccccc23)n1 [Compound 1051] | 0 to 25 | 0 to 25 | 26 to 50 | 0 to 25 |
| COc1ncc(F)c(NNc2ccccc2OC)n1 [Compound 1052] | 0 to 25 | 0 to 25 | 0 to 25 | 0 to 25 |
| COc1ncc(F)c(NOCc2ccco2)n1 [Compound 1053] | 0 to 25 | 0 to 25 | 0 to 25 | 0 to 25 |
| COc1ncc(F)c(N(O)Cc2ccc(Cl)nc2)n1 [Compound 1054] | 0 to 25 | 0 to 25 | 0 to 25 | 0 to 25 |
| COc1ncc(F)c(NNc2c(Cl)cccc2Cl)n1 [Compound 1055] | 0 to 25 | 0 to 25 | 0 to 25 | 0 to 25 |
